Laboratory results as given in US12391695B2, “PRMT5 inhibitors” (Lupin Limited, priority 2019, dated 2025).
Read-outs that look alike come from different tables or passages of the source.

Experiments:
PRMT5:MEP50 = PRMT5:MEP50 (Homo sapiens, UniProt O14744); assay: PRMT5 biochemical assay (HTRF, biotinylated H4R3 substrate), protocols 1 and 2; settings: 1 μM SAM, 50 nM biotinylated H4R3, protocol 1 or 2 not given, read-out: IC50 (activity range), inhibition of PRMT5
Procedure: (§1) Inhibitory effect of compounds on PRMT5 was assessed using HTRF detection technology in biochemical assay. Biotinylated H4R3 (residues 1-21) was used as a substrate. Compounds were pre-incubated with 15-25 ng PRMT5:MEP50 per well of a 384-well plate for 30 min at room temperature in the assay buffer containing 20 mM Bicine, pH 7.6, 25 mM NaCl, 2 mM DTT, 0.01% Chicken albumin and 0.01% Tween-20. Reaction was initiated by adding 1 μM of SAM and 50 nM biotinylated H4R3. Total assay volume was 15 μL. Reaction was continued for 120 min at room temperature. Then detection solution containing Streptavidin-Eu cryptate, anti-rabbit IgG-XL-665, Histone H4R3 Dimethyl Symmetric (H4R3me2s) Polyclonal Antibody, all prepared in HTRF detection buffer was added and further incubated for 30 min at room temperature. HTRF signal was recorded in PHERAStar microplate reader. Ratio of signal obtained at 665 nm and 620 nm was used to compute the percent inhibition of compound as follows % Inhibition=100−((Test Ratio−Negative control Ratio)/(Positive control Ratio−Negative control Ratio)*100) where Positive control=PRMT5+SAM+H4R3 Negative control=PRMT5+H4R3 Biochemical Assay Protocol 2
as §1, with “2.5” for “15-25”, “4 h” for “120 min”, “control=PRMT5+H4R3” for “control=PRMT5+H4R3 Biochemical Assay Protocol 2”

SDMA = SDMA inhibition assay in Z-138 cells (ELISA with anti-SDMA antibody); format: cell-based; settings: Homo sapiens, Z-138, 48 h, 48 h treatment
Procedure: Z-138 cells (ATCC, CRL-3001™) were seeded at a density of 1 million cells/well in transparent, flat bottomed tissue culture grade 48-well plates. Cells were treated with various concentration of test compounds for a period of 48 h. Cell lysate was prepared using 1× CST Lysis buffer (Cell Signaling Technology, USA) and 500 ng/well/50 μL of lysate in pH 9.6 carbonate buffer was coated on 96-well Maxisorb plate and incubated overnight at 4° C. The plate was washed twice in 1×PBS containing 0.05% Tween 20 and blocked in 1% BSA for 1 h at ambient temperature. Further, the plate was incubated first with primary antibody (anti-SDMA antibody; CST #13222s) at ambient temperature for 2 h and then with HRP-conjugated secondary antibody at ambient temperature for 1 h with 2 intermittent washing steps in between.
For luminiscence based detection, HRP substrates (substrate A+substrate B in a 1:1 proportion) were added followed by luminiscence reading after 30 min in Synergy™ 2 reader (Biotek, USA).
For absorbance based detection, TMB substrate was added followed by addition of STOP solution (2N H2SO4) post colour development and absorbance (excitation 450 nm and emission 540 nm) was measured in Synergy™ 2 reader (Biotek, USA).
% inhibition of SDMA was calculated relative to the vehicle control samples containing media with 0.1% DMSO alone as per the formula below. (Avg. of Untreated Control−Avg. of Test)×100 Avg. Of Untreated Control
The IC50 values of individual compounds were calculated with Non Linear Regression Analysis using Graph Pad Prism (Graph Pad software, Inc, USA).

Z-138 cells = assay: Anti-cancer assay (Z-138), cell viability by CellTiterGlo; format: cell-based; settings: Homo sapiens, 96 h treatment, read-out: IC50 (activity range), inhibition of cell viability
Procedure: Z-138 cells were seeded at a density of 2000-3000 cells per well in culture media (IMDM+10% FBS). PANC-1 (ATCC, CRL-1469™) and MIA PaCa-2 (ATCC, CRL-1420™) cells were seeded at a density of 200-300 cells per well in culture media (DMEM+10% FBS). Cells were seeded in opaque, flat bottomed tissue culture grade 96-well plates and Z-138 cells (suspension) were seeded and treated on the same day with various concentrations of test compounds. PANC-1 and MIA PaCa-2 cells, being adherent, were kept for overnight settlement at standard cell culture conditions (37° C., 5% CO2). On the following day, cells were treated with various concentrations of test compounds. Cells were treated with test compounds for a period of 96 h, 7 days and 10 days, for Z-138 cells, PANC-1 cells and MIA PaCa-2 cells, respectively. Cell viability was assessed using CellTiterGlo™ (Promega, USA) as per manufacturer's instructions. Relative Light Units (RLU) were read in Synergy™ 2 reader (Biotek, USA). The assay measures cellular ATP as an indicator of cell viability. RLU is proportional to the number of viable cells in the respective well. % inhibition of cell viability was calculated relative to the vehicle control samples containing media with 0.1% DMSO alone as per the formula below. (Avg. of Untreated Control−Avg. of Test)×100 Avg. Of Untreated Control
The IC50 values of individual compounds were calculated with Non Linear Regression Analysis using Graph Pad Prism (Graph Pad software, Inc, USA). • Anti-Cancer Assay (Z-138)

[1] = read-out: IC50 (activity range), SDMA inhibition
[2] = range with mixed units pM/nM, units kept in the value

Sequence of PRMT5:MEP50 (O14744 whole entry, the tested form may be a part): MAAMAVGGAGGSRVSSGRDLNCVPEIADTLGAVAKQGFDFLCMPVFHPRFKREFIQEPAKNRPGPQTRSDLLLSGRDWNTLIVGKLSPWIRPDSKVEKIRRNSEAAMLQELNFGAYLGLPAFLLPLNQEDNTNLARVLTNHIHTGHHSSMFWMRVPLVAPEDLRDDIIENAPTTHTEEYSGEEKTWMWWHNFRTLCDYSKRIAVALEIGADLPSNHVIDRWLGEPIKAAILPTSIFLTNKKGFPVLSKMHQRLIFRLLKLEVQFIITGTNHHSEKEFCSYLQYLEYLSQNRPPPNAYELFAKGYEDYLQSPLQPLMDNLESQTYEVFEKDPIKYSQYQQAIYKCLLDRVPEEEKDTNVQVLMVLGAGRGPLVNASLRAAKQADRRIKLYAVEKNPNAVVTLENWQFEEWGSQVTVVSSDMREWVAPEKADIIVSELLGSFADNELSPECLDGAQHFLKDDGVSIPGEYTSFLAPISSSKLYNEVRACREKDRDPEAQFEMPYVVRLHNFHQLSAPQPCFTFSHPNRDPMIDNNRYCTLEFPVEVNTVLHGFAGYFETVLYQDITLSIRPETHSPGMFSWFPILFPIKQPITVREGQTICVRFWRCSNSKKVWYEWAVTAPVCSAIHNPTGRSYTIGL
Sequence of PRMT5:MEP50 (Q9BQA1 whole entry partner, the tested form may be a part): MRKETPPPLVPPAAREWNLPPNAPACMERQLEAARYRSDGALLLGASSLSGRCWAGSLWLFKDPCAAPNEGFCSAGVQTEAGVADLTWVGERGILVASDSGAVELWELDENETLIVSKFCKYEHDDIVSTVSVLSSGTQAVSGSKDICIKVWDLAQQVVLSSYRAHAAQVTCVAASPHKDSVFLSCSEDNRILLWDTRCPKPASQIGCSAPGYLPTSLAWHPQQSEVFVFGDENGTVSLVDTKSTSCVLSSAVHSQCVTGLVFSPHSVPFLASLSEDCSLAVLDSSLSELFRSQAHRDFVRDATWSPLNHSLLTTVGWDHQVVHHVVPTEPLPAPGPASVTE

Compound	IC50 (PRMT5:MEP50) [nM]	IC50 (SDMA; [1]) [pM]	IC50 (Z-138 cells) [pM]	IC50 (SDMA; [2]) [pM]	IC50 (Z-138 cells; [2]) [pM]
Nc1nc2cc(CCC3=C[C@@H](n4ccc5c(N)ncnc54)[C@H](O)[C@@H]3O)cnc2cc1Cl [Compound 2, (1S,2R,5R)-3-(2-(6-Amino-7-chloro-1,5-naphthyridin-3-yl)ethyl)-5-(4-amino-7H-pyrrolo [2,3-d]pyrimidin-7-yl)cyclopent-3-ene-1,2-diol]	0.25 to 0.95	1100 to 50000	> 1000	–	–
Nc1ncnc2c1ccn2[C@@H]1C=C(COc2cc(C(F)F)cc3c2CNCC3)[C@@H](O)[C@H]1O [Compound 7, (1S,2R,5R)-5-(4-amino-7H-pyrrolo[2,3-d]pyrimidin-7-yl)-3-(((6-(difluoromethyl)-1,2,3,4-tetrahydroisoquinolin-8-yl)oxy)methyl)cyclopent-3-ene-1,2-diol]	0.25 to 0.95	1100 to 50000	> 1000	–	–
CONc1ncnc2c1ccn2[C@@H]1C=C(CCc2cc(F)c3cc(Cl)c(N)nc3c2)[C@@H](O)[C@H]1O [Compound 30, (1S,2R,5R)-3-(2-(2-Amino-3-chloro-5-fluoroquinolin-7-yl)ethyl)-5-(4-(methoxyamino)-7H-pyrrolo[2,3-d]pyrimidin-7-yl)cyclopent-3-ene-1,2-diol]	0.25 to 0.95	–	–	100 to 1000	–
Nc1nc2cc(CCC3=C[C@@H](n4ncc5c(N)ncnc54)[C@H](O)[C@@H]3O)cc(F)c2cc1Cl [Compound 5, (1S,2R,5R)-5-(4-Amino-1H-pyrazolo[3,4-d]pyrimidin-1-yl)-3-(2-(2-amino-3-chloro-5-fluoroquinolin-7-yl)ethyl)cyclopent-3-ene-1,2-diol]	0.25 to 0.95	–	–	100 to 1000	101 to 1000
Nc1nc2cc(CCC3=C[C@@H](n4cnc5c(N)ncnc54)[C@H](O)[C@@H]3O)cc(F)c2cc1Cl [Compound 1, (1S,2R,5R)-3-(2-(2-Amino-3-chloro-5-fluoroquinolin-7-yl)ethyl)-5-(6-amino-9H-purin-9-yl)cyclopent-3-ene-1,2-diol]	0.25 to 0.95	–	–	100 to 1000	–
Nc1nc2cc(CCC3=C[C@@H](n4ncc5c4ncn4ccnc54)[C@H](O)[C@@H]3O)cc(F)c2cc1Cl [Compound 29, (1S,2R,5R)-3-(2-(2-Amino-3-chloro-5-fluoroquinolin-7-yl)ethyl)-5-(7H-imidazo[1,2-c]pyrazolo[4,3-e]pyrimidin-7-yl)cyclopent-3-ene-1,2-diol]	> 0.95	–	–	–	–
Cc1ncnc2c1ccn2[C@@H]1C=C(CCc2cc(C(F)F)cc3c2CNCC3)[C@@H](O)[C@H]1O [Compound 14, (1S,2R,5R)-3-(2-(6-(difluoromethyl)-1,2,3,4-tetrahydroisoquinolin-8-yl)ethyl)-5-(4-methyl-7H-pyrrolo[2,3-d]pyrimidin-7-yl)cyclopent-3-ene-1,2-diol]	0.25 to 0.95	1100 to 50000	–	–	101 to 1000
Nc1nc2cc(CCC3=C[C@@H](n4ccc5cn6ccnc6nc54)[C@H](O)[C@@H]3O)ccc2cc1Cl [Compound 28, (1S,2R,5R)-3-(2-(2-Amino-3-chloroquinolin-7-yl)ethyl)-5-(8H-imidazo[1,2-a]pyrrolo[2,3-d]pyrimidin-8-yl)cyclopent-3-ene-1,2-diol]	> 0.95	–	> 1000	–	–
Nc1ccn([C@@H]2C=C(COc3cc(F)c4cc(Cl)c(N)nc4c3)[C@@H](O)[C@H]2O)c(=O)n1 [Compound 16, 4-Amino-1-((1R,4R,5S)-3-(((2-amino-3-chloro-5-fluoroquinolin-7-yl)oxy)methyl)-4,5-dihydroxycyclopent-2-en-1-yl)pyrimidin-2 (1H)-one]	0.25 to 0.95	–	–	–	–
Nc1nc2cc(CCC3=C[C@@H](n4ccc5c4ncn4ccnc54)[C@H](O)[C@@H]3O)cc(F)c2cc1Cl [Compound 27, (1S,2R,5R)-3-(2-(2-Amino-3-chloro-5-fluoroquinolin-7-yl)ethyl)-5-(7H-imidazo[1,2-c]pyrrolo[3,2-e]pyrimidin-7-yl)cyclopent-3-ene-1,2-diol]	> 0.95	–	> 1000	–	–

Continued, values first:

IC50 (PRMT5:MEP50) [nM]	IC50 (SDMA; [1]) [pM]	IC50 (Z-138 cells) [pM]	IC50 (SDMA; [2]) [pM]	IC50 (Z-138 cells; [2]) [pM]	Compound
0.25 to 0.95	–	–	100 to 1000	–	CC1Cc2c(F)c(C(F)F)cc(CCC3=C[C@@H](n4ccc5c(N)ncnc54)[C@H](O)[C@@H]3O)c2CN1 (single isomer, unassigned) [Compound 23A]
0.25 to 0.95	1100 to 50000	> 1000	–	–	CC1CNCc2c(CCC3=C[C@@H](n4ccc5c(N)ncnc54)[C@H](O)[C@@H]3O)cc(C(F)F)c(F)c21 (single isomer, unassigned) [Compound 22A]
0.25 to 0.95	1100 to 50000	–	–	101 to 1000	Nc1ncnc2c1ccn2[C@@H]1C=C(CCc2cc(F)c(F)c3c2CNCC3)[C@@H](O)[C@H]1O [Compound 21, (1S,2R,5R)-5-(4-amino-7H-pyrrolo[2,3-d]pyrimidin-7-yl)-3-(2-(5,6-difluoro-1,2,3,4-tetrahydroisoquinolin-8-yl)ethyl)cyclopent-3-ene-1,2-diol]
0.25 to 0.95	1100 to 50000	> 1000	–	–	Nc1ncnc2c1ccn2[C@@H]1C=C(CCc2cc(Cl)c(F)c3c2CNCC3)[C@@H](O)[C@H]1O [Compound 20, (1S,2R,5R)-5-(4-amino-7H-pyrrolo[2,3-d]pyrimidin-7-yl)-3-(2-(6-chloro-5-fluoro-1,2,3,4-tetrahydroisoquinolin-8-yl)ethyl)cyclopent-3-ene-1,2-diol]
0.25 to 0.95	1100 to 50000	> 1000	–	–	Nc1ncnc2c1ccn2[C@@H]1C=C(COc2cc(C(F)F)c(F)c3c2CNCC3)[C@@H](O)[C@H]1O [Compound 12, (1S,2R,5R)-5-(4-amino-7H-pyrrolo[2,3-d]pyrimidin-7-yl)-3-(((6-(difluoromethyl)-5-fluoro-1,2,3,4-tetrahydroisoquinolin-8-yl)oxy)methyl)cyclopent-3-ene-1,2-diol]
–	1100 to 50000	> 1000	–	–	CC1Cc2c(F)c(C(F)F)cc(CCC3=C[C@@H](n4ccc5c(N)ncnc54)[C@H](O)[C@@H]3O)c2CN1 (single isomer, unassigned) [Compound 23B]
–	–	–	100 to 1000	–	CC1CNCc2c(CCC3=C[C@@H](n4ccc5c(N)ncnc54)[C@H](O)[C@@H]3O)cc(C(F)F)c(F)c21 (single isomer, unassigned) [Compound 22B]
